Literature values in patent publication US11000594B2, “Composition comprising an organic liquid diluent and a cellulose ether of very low viscosity” (Dow Global Technologies LLC, priority 2012, dated 2021).
Values after ≈ are worked out from the molar mass of the structure shown.

**Q.** Which water solubility does the source give for `COC1=CC(=O)C[C@@H](C)[C@]12Oc1c(Cl)c(OC)cc(OC)c1C2=O` [Griseofulvin] here?
**A.** 8.54 µg/mL (≈ 24.2 µM)
